Results reported in the NIST ThermoML archive (doi:10.1016/j.fluid.2008.06.019).
± gives the expanded uncertainty stated by the source.

Columns and labels:
[1] = 298.15 K; 101.33 kPa; Liquid
[2] = xn = mol fraction of the nth substance listed; conditions: 298.15 K, 101 kPa, Liquid

CC(C)OC(C)C [diisopropyl ether]
Conditions | mass density [kg/m3]
[1] | 719.17 ± 0.33

CC(C)OC(C)C [diisopropyl ether] + CCCO
[2]
Conditions | mass density [kg/m3]
x1 = 0.0508 | 794.63 ± 0.29
x1 = 0.0999 | 789.64 ± 0.3
x1 = 0.2 | 779.84 ± 0.3
x1 = 0.2998 | 770.67 ± 0.31
x1 = 0.3993 | 762.07 ± 0.31
x1 = 0.4999 | 754.19 ± 0.32
x1 = 0.6006 | 746.71 ± 0.32
x1 = 0.7007 | 739.41 ± 0.32
x1 = 0.8001 | 732.66 ± 0.32
x1 = 0.9015 | 725.59 ± 0.33
x1 = 0.9514 | 722.22 ± 0.33

CC(C)OC(C)C [diisopropyl ether] + Cc1ccccc1
[2]
Conditions | mass density [kg/m3]
x1 = 0.05 | 853.94 ± 0.27
x1 = 0.0995 | 845.89 ± 0.27
x1 = 0.2004 | 829.97 ± 0.28
x1 = 0.2999 | 814.46 ± 0.29
x1 = 0.4001 | 799.53 ± 0.3
x1 = 0.5003 | 784.92 ± 0.31
x1 = 0.6001 | 770.99 ± 0.31
x1 = 0.7004 | 757.31 ± 0.31
x1 = 0.8003 | 744.27 ± 0.32
x1 = 0.9003 | 731.28 ± 0.33
x1 = 0.9498 | 725.19 ± 0.33

CCCO [propan-1-ol]
Conditions | mass density [kg/m3]
[1] | 800.61 ± 0.29

Cc1ccccc1 [toluene]
Conditions | mass density [kg/m3]
[1] | 862.23 ± 0.27

Cc1ccccc1 [toluene] + CCCO
[2]
Conditions | mass density [kg/m3]
x2 = 0.0491 | 859.7 ± 0.27
x2 = 0.0987 | 857.27 ± 0.27
x2 = 0.2003 | 852.39 ± 0.27
x2 = 0.2995 | 847.48 ± 0.27
x2 = 0.4006 | 842.21 ± 0.28
x2 = 0.5001 | 836.7 ± 0.28
x2 = 0.6001 | 830.71 ± 0.28
x2 = 0.7005 | 824.13 ± 0.28
x2 = 0.8001 | 817.01 ± 0.29
x2 = 0.9006 | 809.12 ± 0.29
x2 = 0.9497 | 805 ± 0.29
